The record followed here is patent publication US4323602A, “Water repellent and preservative for wood products” (priority 1980, dated 1982).

In this experiment the test system is Lenzites trabea (Madison strain 617). Nature of the experiment: NWMA Soil-Block Test (fungicide effectiveness, wood decay). To be noted: 5.4 times the threshold concentration (NWMA). As for the experimental part: The product of Table 2, diluted with four parts water, was tested as a fungicide using a standard National Woodwork Manufacturers Association (NWMA) Soil-Block Test to determine and compare effectiveness with a Standard Solvent Based 5% Penta treating solution. This test method is used to determine the minimum amount of preservative that is effective in preventing decay of selected species of wood by selected fungi under optimum laboratory conditions.
The test method may be briefly summarized as follows: Conditioned blocks of wood are impregnated with solutions of a preservative in water or organic solvent to form one or more series of gradient retentions of the preservative in the blocks. After periods of weathering, the impregnated blocks are exposed to the wood-destroying fungus, Lenzites trabea (Madison strain 617). The minimum amount of preservative which protects the impregnated blocks against decay by the fungus is defined as the threshold retention for that organism. Failure to protect is evidenced by loss of wood from the treated wood blocks, as indicated by a loss in weight.
The threshold retention expressed in pounds of treating solution per cubic foot of wood represents the minimum amount of preservative necessary to protect wood from decay. […]

With `CCCCNC(=O)OCC#CI` [Example 3-Iodo, 3-iodo-2-propynyl butyl carbamate], the “Use Concentration” value came to 0.27%.
